Where a name gives a salt, the structure may show the parent alone.
Columns and labels:
human Cat L = human Cat L (Homo sapiens (Human), UniProt P07711); test: Cathepsin enzyme inhibition assay (human Cat L); assay type: biochemical; conditions: enzyme 1 nM, substrate Z-Val-Val-Arg-AMC 20 μM
Protocol: (§1) Cathepsin Enzyme Inhibition Assay
(§2) Enzyme activity is measured by observing the increase in fluorescence intensity caused by cleavage of a peptide substrate containing a fluorophore whose emission is quenched in the intact peptide.
(§3) Assay buffer: 100 mM potassium phosphate pH 6.5, EDTA-Na 5 mM, Triton X-100 0.001%, DTT 5 mM.
(§4) Enzymes (all at 1 nM): human and mouse Cathepsin S, Cat K, Cat B, Cat L.
(§5) Substrate (20 μM): Z-Val-Val-Arg-AMC, except for Cat K which uses Z-Leu-Arg-AMC (both from Bachem).
Excitation 360 nm, Emission 465 nm.
Enzyme is added to the substance dilutions in 96-well microtitre plates and the reaction is started with substrate. Fluorescence emission is measured over 20 minutes, during which time a linear increase is observed in the absence of inhibitor. IC50 are calculated by standard methods.
Inhibition of human Cat S, mouse Cat S, human Cat K, human Cat B, human Cat L and mouse Cat L have been measured separately. The results obtained for human Cat S and L for representative compounds of the invention are expressed in the following table in μM.

human Cat S = human Cat S (Homo sapiens (Human), UniProt P25774); test: Cathepsin enzyme inhibition assay (human Cat S); assay type: biochemical; conditions: enzyme 1 nM, substrate Z-Val-Val-Arg-AMC 20 μM
Protocol: as §1, §2, §3, §4, §5
Enzyme is added to the substance dilutions in 96-well microtitre plates and the reaction is started with substrate. […] IC50 are calculated by standard methods.
Inhibition of human Cat S, mouse Cat S, human Cat K, human Cat B, human Cat L and mouse Cat L have been measured separately.

human Cat L, sequence (P07711 114-333): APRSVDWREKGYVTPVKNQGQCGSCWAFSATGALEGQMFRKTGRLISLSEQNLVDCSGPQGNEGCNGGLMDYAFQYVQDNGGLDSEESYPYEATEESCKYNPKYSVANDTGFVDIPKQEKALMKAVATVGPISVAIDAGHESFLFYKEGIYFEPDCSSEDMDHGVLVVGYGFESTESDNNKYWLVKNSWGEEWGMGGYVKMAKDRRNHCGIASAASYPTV
human Cat S, sequence (P25774 115-331): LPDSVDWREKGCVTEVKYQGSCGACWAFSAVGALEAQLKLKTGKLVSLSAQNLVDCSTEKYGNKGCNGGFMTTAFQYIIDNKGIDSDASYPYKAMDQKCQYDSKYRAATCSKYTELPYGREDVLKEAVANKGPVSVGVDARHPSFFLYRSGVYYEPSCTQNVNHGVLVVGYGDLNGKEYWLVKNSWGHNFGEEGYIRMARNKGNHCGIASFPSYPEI

SMILES	IC50 (human Cat L; pH 6.5) [nM]	IC50 (human Cat S; pH 6.5) [nM]	IC50 (human Cat L; pH 6.5, hydrochloride) [nM]	IC50 (human Cat S; pH 6.5, hydrochloride) [nM]
C[C@H](Oc1ccc(S(=O)(=O)[C@@H]2C[C@@H](C(=O)NC3(C#N)CC3)N(C(=O)C3(c4ncc(Br)cc4F)CN(C(=O)OC(C)(C)C)C3)C2)c(Cl)c1)C(F)(F)F [Example 33, 3-(5-Bromo-3-fluoro-pyridin-2-yl)-3-[(2S,4R)-4-[2-chloro-4-((S)-2,2,2-trifluoro-1-methyl-ethoxy)-benzenesulfonyl]-2-(1-cyano-cyclopropylcarbamoyl)-pyrrolidine-1-carbonyl]-azetidine-1-carboxylic acid tert-butyl ester]	89.5	3.54		
CC(C)(C)OC(=O)N1CC(C(=O)N2C[C@H](S(=O)(=O)c3ccccc3Cl)C[C@H]2C(=O)NC2(C#N)CC2)(c2ncc(Cl)cc2F)C1 [Example 10, 3-[(2S,4R)-4-(2-Chloro-benzenesulfonyl)-2-(1-cyano-cyclopropylcarbamoyl)-pyrrolidine-1-carbonyl]-3-(5-chloro-3-fluoro-pyridin-2-yl)-azetidine-1-carboxylic acid tert-butyl ester]	194	1.26		
C[C@H](Oc1ccc(S(=O)(=O)[C@@H]2C[C@@H](C(=O)NC3(C#N)CC3)N(C(=O)C3(c4ncc(Br)cc4F)CN(CC(F)F)C3)C2)c(Cl)c1)C(F)(F)F [Example 49, (2S,4R)-1-[3-(5-Bromo-3-fluoro-pyridin-2-yl)-1-(2,2-difluoro-ethyl)-azetidine-3-carbonyl]-4-[2-chloro-4-((S)-2,2,2-trifluoro-1-methyl-ethoxy)-benzenesulfonyl]-pyrrolidine-2-carboxylic acid (1-cyano-cyclopropyl)-amide]	5	1		
C[C@H](Oc1ccc(S(=O)(=O)[C@@H]2C[C@@H](C(=O)NC3(C#N)CC3)N(C(=O)C3(c4ncc(Br)cc4F)CCN3C(=O)OC(C)(C)C)C2)c(Cl)c1)C(F)(F)F (stereo partly drawn) [Example 30, 2-(5-Bromo-3-fluoro-pyridin-2-yl)-2-[(2S,4R)-4-[2-chloro-4-((S)-2,2,2-trifluoro-1-methyl-ethoxy)-benzenesulfonyl]-2-(1-cyano-cyclopropylcarbamoyl)-pyrrolidine-1-carbonyl]-azetidine-1-carboxylic acid tert-butyl ester]	1060	2.22		
COC(=O)N1CC(C(=O)N2C[C@H](S(=O)(=O)c3ccc(O[C@@H](C)C(F)(F)F)cc3Cl)C[C@H]2C(=O)NC2(C#N)CC2)(c2ncc(Br)cc2F)C1 [Example 51, 3-(5-Bromo-3-fluoro-pyridin-2-yl)-3-[(2S,4R)-4-[2-chloro-4-((S)-2,2,2-trifluoro-1-methyl-ethoxy)-benzenesulfonyl]-2-(1-cyano-cyclopropylcarbamoyl)-pyrrolidine-1-carbonyl]-azetidine-1-carboxylic acid methyl ester]	7	2		
CC(C)(C)OC(=O)N1CC(C(=O)N2C[C@H](S(=O)(=O)c3ccc(OCC(F)(F)F)cc3Cl)C[C@H]2C(=O)NC2(C#N)CC2)(c2ccc(Br)cn2)C1 [Example 5, 3-(5-Bromo-pyridin-2-yl)-3-[(2S,4R)-4-[2-chloro-4-(2,2,2-trifluoro-ethoxy)-benzenesulfonyl]-2-(1-cyano-cyclopropylcarbamoyl)-pyrrolidine-1-carbonyl]-azetidine-1-carboxylic acid tert-butyl ester]	753	3.69		

More lines, now with the values ahead:

IC50 (human Cat L; pH 6.5) [nM]	IC50 (human Cat S; pH 6.5) [nM]	IC50 (human Cat L; pH 6.5, hydrochloride) [nM]	IC50 (human Cat S; pH 6.5, hydrochloride) [nM]	SMILES
39.8	0.525			CN1CC(C(=O)N2C[C@H](S(=O)(=O)c3ccccc3Cl)C[C@H]2C(=O)NC2(C#N)CC2)(c2ncc(Cl)cc2F)C1 [Example 16, (2S,4R)-4-(2-Chloro-benzenesulfonyl)-1-[3-(5-chloro-3-fluoro-pyridin-2-yl)-1-methyl-azetidine-3-carbonyl]-pyrrolidine-2-carboxylic acid (1-cyano-cyclopropyl)-amide]
		1440	1.3	N#CC1(NC(=O)[C@@H]2C[C@@H](S(=O)(=O)c3ccc(F)cc3Cl)CN2C(=O)C2(c3ncc(Cl)cc3F)CCN2)CC1 (stereo partly drawn) [Example 35, (2S,4R)-4-(2-Chloro-4-fluoro-benzenesulfonyl)-1-[2-(5-chloro-3-fluoro-pyridin-2-yl)-azetidine-2-carbonyl]-pyrrolidine-2-carboxylic acid (1-cyano-cyclopropyl)-amide hydrochloride]
70.6	2.08			Cc1cc(-c2ccc(S(=O)(=O)[C@@H]3C[C@@H](C(=O)NC4(C#N)CC4)N(C(=O)C4(c5ncc(Br)cc5F)CCN4)C3)c(Cl)c2)ccn1 (stereo partly drawn) [Example 44, (2S,4R)-1-[2-(5-Bromo-3-fluoro-pyridin-2-yl)-azetidine-2-carbonyl]-4-[2-chloro-4-(2-methyl-pyridin-4-yl)-benzenesulfonyl]-pyrrolidine-2-carboxylic acid (1-cyano-cyclopropyl)-amide hydrochloride]
4.6	1.09			N#CC1(NC(=O)[C@@H]2C[C@@H](S(=O)(=O)c3ccccc3Cl)CN2C(=O)C2(c3ncc(Br)cc3F)CNC2)CC1 [Example 13, (2S,4R)-1-[3-(5-Bromo-3-fluoro-pyridin-2-yl)-azetidine-3-carbonyl]-4-(2-chloro-benzenesulfonyl)-pyrrolidine-2-carboxylic acid (1-cyano-cyclopropyl)-amide]
1020	1.26			CC(C)(C)OC(=O)N1CCC1(C(=O)N1C[C@H](S(=O)(=O)c2ccc(F)cc2Cl)C[C@H]1C(=O)NC1(C#N)CC1)c1ncc(Br)cc1F (stereo partly drawn) [Example 22, 2-(5-Bromo-3-fluoro-pyridin-2-yl)-2-[(2S,4R)-4-(2-chloro-4-fluoro-benzenesulfonyl)-2-(1-cyano-cyclopropylcarbamoyl)-pyrrolidine-1-carbonyl]-azetidine-1-carboxylic acid tert-butyl ester]
38.1	1.49			COc1ccc(S(=O)(=O)[C@@H]2C[C@@H](C(=O)NC3(C#N)CC3)N(C(=O)C3(c4ccc(Cl)cn4)CNC3)C2)c(Cl)c1 [Example 2, (2S,4R)-4-(2-Chloro-4-methoxy-benzenesulfonyl)-1-[3-(5-chloro-pyridin-2-yl)-azetidine-3-carbonyl]-pyrrolidine-2-carboxylic acid (1-cyano-cyclopropyl)-amide]
